# Columns and labels:
# [1] = Solubility remark in Table 2 (compound insoluble, no IC50 given); type: physicochemical; conditions: Table 2, cell in place of 4A/4C/5A IC50
# [2] = target: T1, KDM4C (Homo sapiens, UniProt Q9H3R0); test: KDM4C Assay (SAMDI mass spectrometry demethylase assay); type: biochemical; conditions: N-terminal GST-tagged KDM4C 2-372; class symbols; read-out: 4C IC50
# T1 construct: N-terminal GST-tagged KDM4C^2-372 was purchased from BPS Biosciences; GST (N); purchased BPS Biosciences
# T1 sequence (Q9H3R0 2-372): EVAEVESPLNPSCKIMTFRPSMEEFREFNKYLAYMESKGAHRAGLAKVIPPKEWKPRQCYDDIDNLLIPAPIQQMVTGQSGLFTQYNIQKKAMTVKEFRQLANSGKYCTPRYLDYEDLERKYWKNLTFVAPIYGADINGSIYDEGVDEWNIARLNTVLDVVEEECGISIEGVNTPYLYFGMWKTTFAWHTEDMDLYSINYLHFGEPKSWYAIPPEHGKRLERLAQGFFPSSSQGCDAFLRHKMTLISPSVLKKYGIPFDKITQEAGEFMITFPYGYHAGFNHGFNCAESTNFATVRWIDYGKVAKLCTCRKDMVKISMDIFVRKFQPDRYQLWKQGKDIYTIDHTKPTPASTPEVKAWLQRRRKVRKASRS
# Description: (§1) N-terminal GST-tagged KDM4C^2-372 was purchased from BPS Biosciences. Peptides were synthesized by BioPeptide and all other reagents were purchased from Sigma-Aldrich at the highest level of purity possible. Assays were performed in a 50 μL volume in 384-well V-bottom polypropylene microplates (Greiner) at 25° C. Optimized 1× assay buffer was 50 mM HEPES (pH=8.0), 100 μM sodium ascorbate, 20 mM NaCl, 10 μM ammonium iron sulfate, 1 mM tris(2-carboxyethyl)phosphine (TCEP), 0.002% Tween-20, and 0.005% BSG. For compound screening, 35 μL of KDM4C^2-372 (final concentration, f.c.=5 nM) was added using a Multidrop Combi and preincubated with 1 μL of test compound (f.c.=10 μM) for 30 minutes and subsequently 15 μL of peptide with the following sequence NH2-ARTKQTAR(Kme3)STGGKAPRKQLA(K-Ahx-Biotin)-amide (f.c.=500 nM) and 2-oxoglutarate (f.c.=15 μM) was added by Multidrop Combi to begin the reaction. Reactions proceeded for 150 minutes and were stopped by the addition of 5 μL of formic acid (f.c.=0.5%) using a Multidrop Combi and then analyzed by SAMDI Tech Inc.
# (§2) SAMDI Tech analyzed all reactions using self-assembled monoloayer desorption/ionization technology as previously described (Gerard-Levin Z A, Scholle M D, Eisenberg A H, et al.: High-throughput screening of small molecule libraries using SAMDI mass spectrometry. ACS Comb Sci 2011; 13:347-350). Briefly, a 2 μL sample of the stopped demethylase reactions were transferred to a SAMDI array coated with 384 biotin-neutravidin spots using a 384-channel pipet station. The SAMDI arrays were incubated for 1 h in a humidified chamber, followed by washing of the surface with deionized ultra-filtered water (DIUF) and drying under nitrogen. A matrix of 30 mg/ml 2′,4′,6′-Trihydroxyacetophenone monohydrate (THAP) in acetone was applied using a TPP Mosquito 1.2 μL tip by dispensing 50 nL on each of the 384 spots on the array. SAMDI-MS was run using acquisition method ReflectorPositiveUTX. The % conversion of substrate to product was calculated using the AUC of the substrate and product peptide peaks.
# (§3) An IC50 value was determined by contacting various concentrations of a test compound with one of the KDM4A, KDM4C or KDMSC enzyme constructs and plotting a dose-response curve which associates the amount of inhibition of the enzyme relative to the concentration of the test compound. From the curve, the IC50 value (which represents the concentration of the test compound necessary to inhibit maximal enzymatic activity by 50%) was determined. Additionally, the slope of the linear range of the plotted curve, which indicates the speed with which the curve rises between the minimum and maximum, was calculated.
# [3] = target: T2, KDM5A (Homo sapiens, UniProt P29375); test: KDM5A Assay (SAMDI mass spectrometry demethylase assay); type: biochemical; conditions: C-terminal FLAG-tagged KDM5A 1-1090; class symbols; read-out: 5A IC50
# T2 construct: C-terminal FLAG-tagged KDM5A^1-1090 was purchased from BPS Biosciences; FLAG (C); purchased BPS Biosciences
# T2 sequence (P29375 1-1090): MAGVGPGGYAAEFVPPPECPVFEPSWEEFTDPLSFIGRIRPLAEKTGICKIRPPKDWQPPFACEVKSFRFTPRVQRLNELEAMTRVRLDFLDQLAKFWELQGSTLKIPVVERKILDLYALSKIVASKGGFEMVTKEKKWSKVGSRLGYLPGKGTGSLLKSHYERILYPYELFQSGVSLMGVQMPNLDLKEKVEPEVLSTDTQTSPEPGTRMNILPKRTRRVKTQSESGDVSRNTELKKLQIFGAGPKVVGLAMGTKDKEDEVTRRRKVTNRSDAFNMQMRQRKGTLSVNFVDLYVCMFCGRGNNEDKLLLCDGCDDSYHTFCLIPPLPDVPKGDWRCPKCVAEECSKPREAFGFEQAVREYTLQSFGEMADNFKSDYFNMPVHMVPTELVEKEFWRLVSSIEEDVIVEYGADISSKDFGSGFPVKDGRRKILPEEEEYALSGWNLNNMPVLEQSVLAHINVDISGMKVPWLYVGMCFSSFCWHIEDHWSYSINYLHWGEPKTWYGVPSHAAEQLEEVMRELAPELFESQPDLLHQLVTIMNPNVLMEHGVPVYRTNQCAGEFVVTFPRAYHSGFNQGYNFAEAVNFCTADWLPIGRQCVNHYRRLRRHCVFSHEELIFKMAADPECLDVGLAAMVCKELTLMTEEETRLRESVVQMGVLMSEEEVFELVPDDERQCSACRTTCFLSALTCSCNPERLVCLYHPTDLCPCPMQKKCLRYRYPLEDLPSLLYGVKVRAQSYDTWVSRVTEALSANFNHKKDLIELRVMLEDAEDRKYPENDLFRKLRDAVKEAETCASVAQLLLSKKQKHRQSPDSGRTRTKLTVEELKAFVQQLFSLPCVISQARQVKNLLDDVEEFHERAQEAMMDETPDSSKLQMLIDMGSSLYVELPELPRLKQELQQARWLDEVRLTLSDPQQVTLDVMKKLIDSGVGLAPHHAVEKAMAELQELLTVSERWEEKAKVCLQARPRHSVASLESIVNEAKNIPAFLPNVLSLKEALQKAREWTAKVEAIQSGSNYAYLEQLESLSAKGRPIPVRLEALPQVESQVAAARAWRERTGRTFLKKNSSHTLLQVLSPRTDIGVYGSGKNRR
# Description: as §1, with “C-terminal FLAG-tagged KDM5A^1-1090” for “N-terminal GST-tagged KDM4C^2-372”, “[…]” for “KDM4C^2-372”, “f.c.=20” for “f.c.=5”, “NH2-ART[Kme-3]QTARKSTGGKA[K-Ahx-Biot]-amide (f.c.=250” for “NH2-ARTKQTAR(Kme3)STGGKAPRKQLA(K-Ahx-Biotin)-amide (f.c.=500”
# as §2, §3
Solubility remark given instead of IC50 values [1],IC50 [2] [µM],IC50 [3] [µM],Compound
Insoluble,,,"Cc1c(Nc2cnccc2C(=O)O)nn(C)c1-c1ccccc1 [Compound 54, 3-((1,4-dimethyl-5-phenyl-1H-pyrazol-3-yl)amino)isonicotinic acid]"
Insoluble,,,"Cc1ccccc1-n1ncc(Nc2cnccc2C(=O)O)c1C [Compound 50, 3-((5-methyl-1-(o-tolyl)-1H-pyrazol-4-yl)amino)isonicotinic acid]"
Insoluble,,,"Cn1nc(-c2ccncc2)cc1Nc1cnccc1C(=O)O [Compound 44, 3-((1-methyl-3-(pyridin-4-yl)-1H-pyrazol-5-yl)amino) isonicotinic acid]"
,0.1 to 1,0.1 to 1,"O=C(O)c1ccncc1Nc1cnn(C2CCN(Cc3ccccc3)C2)c1-c1ccccc1 (stereo not shown) [Compound 125, 3-(1-(1-benzylpyrrolidin-3-yl)-5-phenyl-1H-pyrazol-4-ylamino) isonicotinic acid]"
,1 to 10,1 to 10,CN1CCC(n2ncc(Nc3cnccc3C(=O)O)c2-c2ccccc2)C1 (stereo not shown) [Compound 124]

# Reference: patent publication US20170291890A1 (Epizyme, Inc., priority 2014, published 2017)
